This is an account of results in patent publication US9963462B2 (priority 2015, dated 2018).

The test system of assay [1] is BH4 production in human peripheral blood mononuclear cells (PBMCs). In words: hPBMC assay, inhibition of BH4 production by LC-MS (anti-CD3/anti-CD28 stimulated). The class given is cell-based. Particulars: PBMC, read-out: hPBMC IC50.
Assay [2] concerns BH4 levels in SK-N-BE (2) cells. In words: SKN-N-BE (2) cellular assay, BH4 levels by LC-MS. The settings on record: Homo sapiens, SKNBE2, read-out: SK-N-BE(2) IC50, SK-N-BE (2) cells, BH4 levels by LC-MS. It counts as cell-based.
Protocol: SKN-N-BE(2) Cellular Assay: SK-N-BE (2) cells were seeded in sterile, 96-well plates and incubated for 12-24 hours at 37° C. with 5% CO2 supply. Media was removed and fresh DMEM/F-12 media (containing Glutamine & Pen/Strep but no FBS) was added. Compounds (at different concentrations) were added to different wells. The plates were then incubated for 6-48 hours at 37° C. with 5% CO2 supply. Plates were then centrifuged and the supernatant was removed. The plates were then optionally washed once with PBS. They were then sealed and stored at −80° C. or immediately used. The cells were lysed and the level of BH4 was assessed by LC-MS.
Compounds were assayed for SPR inhibitory activity using a SKN-N-BE (2) cellular assay according to the following procedure. SK-N-BE (2) cells were seeded in sterile, 96-well plates and incubated for 12-24 hours at 37° C. with 5% CO2 supply. Media was removed and fresh DMEM/F-12 media (containing Glutamine & Pen/Strep but no FBS) was added. Compounds (at different concentrations) were added to different wells. The plates were then incubated for 6-48 hours at 37° C. with 5% CO2 supply. Plates were then centrifuged and the supernatant was removed. The plates were then optionally washed once with PBS. They were then sealed and stored at −80° C. or immediately used in the next step. The cells were lysed and the levels of BH4 were assessed by LC-MS.
Assay [3] addresses SNAP-hSPR (sepiapterin reductase, SPR) (Homo sapiens, UniProt P35270). Nature of the assay: biochemical. It counts as binding. The settings on record: terbium labelled SNAP-hSPR / SSZ labelled SNAP-EGFP; read-out: hTR-FRET IC50.
For assay [4], the system named is neuropathic pain-like behaviors after spared nerve injury (SNI). Nature of the assay: Behavioral pharmacology model: spared nerve injury (SNI), paw withdrawal threshold, von Frey filaments. It counts as in vivo. Particulars: rat, oral gavage, mechanical endpoint, 4 hrs. The procedure: (§1) Behavioral Pharmacology Model: Compounds were administered by oral gavage to rats that had undergone one of two nerve injury surgeries: spared nerve injury to injure two of the three peripheral branches of the sciatic nerve or chronic constriction injury of the sciatic nerve. Paw withdrawal thresholds to mechanical stimulation using calibrated von Frey filaments were used as measurement of neuropathic pain-like behaviors.
(§2) Compounds were tested in standard behavioral pharmacology models for pain in rats as described in the literature (see, e.g., Latremoliere et al., Neuron, 86:1393-1406 (2015); Tegeder et al., Nature Medicine, 12:1269-1277 (2006)). Compounds were administered by oral gavage to rats that had undergone one of two nerve injury surgeries: spared nerve injury to injure two of the three peripheral branches of the sciatic nerve (SNI, Decosterd et al., Pain, 87:149-158 (2000)) or chronic constriction injury of the sciatic nerve (CCI, Bennett et al., Pain, 33:87-107 (1988)). Paw withdrawal thresholds to mechanical stimulation using calibrated von Frey filaments were used as measurement of neuropathic pain-like behaviors.

For assay [5], the system named is neuropathic pain-like behaviors after chronic constriction injury (CCI). In words: Behavioral pharmacology model: chronic constriction injury of the sciatic nerve (CCI), paw withdrawal threshold, von Frey filaments. It counts as in vivo. The settings on record: rat, oral gavage, mechanical endpoint, 4 hrs. The procedure: as §1, §2

SNAP-hSPR (sepiapterin reductase, SPR), sequence (P35270 whole entry): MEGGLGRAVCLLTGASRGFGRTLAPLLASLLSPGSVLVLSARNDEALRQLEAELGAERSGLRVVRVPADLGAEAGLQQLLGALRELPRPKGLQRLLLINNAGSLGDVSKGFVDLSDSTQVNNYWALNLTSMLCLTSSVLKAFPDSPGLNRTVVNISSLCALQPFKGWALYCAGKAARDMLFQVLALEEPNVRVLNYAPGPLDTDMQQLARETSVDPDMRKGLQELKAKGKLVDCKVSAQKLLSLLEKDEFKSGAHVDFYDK

In general, IC50 refers to the midpoint of a concentration-inhibition curve. As to `Cc1c(C(=O)N2CCC(C(C#N)CCF)CC2)cnn1-c1nn2cccc2c(=O)[nH]1` (stereo not drawn) [Q-1062], the IC50 was found to be 0.097 µM in assay [1], 0.1 µM in assay [2] and 0.001 µM in assay [3].
The like results for `Cc1c(C(=O)N2CCC(C(C#N)CCF)CC2)cnn1-c1nc2c(c(=O)[nH]1)CCC2` (stereo not drawn) [Q-1063] were, in that order, 0.12 µM, 0.055 µM and 0.002 µM.
On to `CCC(=C1CCN(C(=O)c2cnn(-c3nn4cccc4c(=O)[nH]3)c2C)CC1)C(F)(F)F` [Q-1064], for which the IC50 in assay [1] was found to be 0.22 µM; in assay [2], 0.2 µM; in assay [3] it was 0.002 µM.
As to `C/C=C(/C1CCN(C(=O)c2cnn(-c3nn4cccc4c(=O)[nH]3)c2C)CC1)C(F)(F)F` [Q-1065], the IC50 worked out at 0.074 µM in assay [1], 0.058 µM in assay [2] and 0.001 µM in assay [3].
In the case of `Cc1c(C(=O)N2CCC(C(O)C(F)(F)F)CC2)cnn1-c1nn2cccc2c(=O)[nH]1` (stereo not drawn) [Q-1066], the IC50 in assay [1] was 0.082 µM; in assay [2], 0.3 µM; in assay [3], 0.001 µM.
`Cc1c(C(=O)N2CCC(C(O)C(F)(F)F)CC2)cnn1-c1nc2c(c(=O)[nH]1)CCC2` (stereo not drawn) [Q-1067]: the IC50 is 0.16 µM in assay [1], 0.1 µM in assay [2] and 0.002 µM in assay [3].
`Cc1c(C(=O)N2CCC(c3nc(C#N)co3)CC2)cnn1-c1nn2cccc2c(=O)[nH]1` [Q-1127]: the half-maximal inhibitory concentration (IC50) came to 0.015 µM in assay [1] and 0.001 µM in assay [3]. Further, the “Behavior Significant effect” value in assay [4] (20 mpk QD 3 days) is listed as “yes”.
Take `Cc1c(C(=O)N2CC(c3ccnc(F)c3)C2)cnn1-c1nn2cccc2c(=O)[nH]1` [Q-1133]: the IC50 in assay [1] came to 0.022 µM; in assay [3], 0.002 µM. Also, in assay [5] (10 mpk QD 3 days), the “Behavior Significant effect” value is on record as “yes”.
As to `Cc1c(C(=O)N2CCN(C3CC(F)(F)C3)CC2)cnn1-c1nn2cccc2c(=O)[nH]1` [Q-1169], the IC50 came to 0.077 µM in assay [1] and 0.001 µM in assay [3]. In assay [5] (9.5 mpk QD 3 days), the “Behavior Significant effect” value is “yes”.
Regarding `Cc1c(C(=O)N2CC3CC(C2)N3C2CC2)cnn1-c1nn2cccc2c(=O)[nH]1` [Q-1195], the IC50 in assay [1] was determined as 0.047 µM; in assay [3], 0.002 µM. In addition, the “Behavior Significant effect” value in assay [4] (15 mpk QD 3 days) is reported as “yes”.
In the case of `Cc1c(C(=O)N2CCN(C3CCC3(F)F)CC2)nnn1-c1nn2cccc2c(=O)[nH]1` (stereo not drawn) [Q-1204], the 50% inhibitory concentration (IC50) in assay [1] amounted to 0.017 µM; in assay [3] it was 0.001 µM. Besides, the “Behavior Significant effect” value in assay [4] (10 mpk QD 3 days) is given as “yes”.
For `Cc1c(C(=O)N2CCC2c2ccc(F)nc2)cnn1-c1nn2cccc2c(=O)[nH]1` (stereo not drawn) [Q-1242] the same measures were 0.032 µM, 0.005 µM and “yes”.
`Cc1c(C(=O)N2CCN(C3CC(F)(F)C3)CC2)nnn1-c1nn2cccc2c(=O)[nH]1` [Q-1245]: the IC50 came out at 0.026 µM in assay [1] and 0.001 µM in assay [3]. The “Behavior Significant effect” value in assay [5] (9.5 mpk QD 3 days) is reported as “yes”.
